Key:
[1] = target: T1, Free fatty acid receptor 4 (Homo sapiens, UniProt Q5NUL3); assay: Agonist activity at human GPR120 expressed in HEK293 cells assessed as calcium accumulation; format: cell-based
T1 sequence (Q5NUL3 whole entry): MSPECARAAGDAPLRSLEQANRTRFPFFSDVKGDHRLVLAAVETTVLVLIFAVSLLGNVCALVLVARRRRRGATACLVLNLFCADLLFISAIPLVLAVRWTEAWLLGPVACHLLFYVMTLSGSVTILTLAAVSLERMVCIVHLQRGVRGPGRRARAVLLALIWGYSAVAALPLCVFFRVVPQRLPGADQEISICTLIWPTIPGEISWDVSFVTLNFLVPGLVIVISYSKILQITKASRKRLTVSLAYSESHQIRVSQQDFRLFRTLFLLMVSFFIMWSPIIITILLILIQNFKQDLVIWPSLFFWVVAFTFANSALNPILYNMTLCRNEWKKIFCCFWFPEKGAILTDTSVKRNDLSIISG

[2] = target: T1, Free fatty acid receptor 4; assay: Agonist activity at human GPR120 expressed in HEK293 cells by beta-arrestin assay; format: cell-based
[3] = target: T1, Free fatty acid receptor 4; assay: Agonist activity at human GPR120 expressed in CHO-K1 cells by beta-arrestin assay; format: cell-based
[4] = system: DU-145; assay: Antiproliferative activity against LPA-induced human DU-145 cells; format: functional, cell-based
[5] = Agonist activity at FFA receptor (unknown origin); design: species or system Homo sapiens

An EC50 [1] of 165 nM and an EC50 [2] of 125 nM were found for `OCCCc1c(F)cc(OCc2c(-c3ccc(Cl)cc3)csc2C(F)(F)F)cc1F` in this work.
An EC50 [3] of 5.2 nM was found for `C#Cc1cc(Oc2cccnc2)cc(N2Cc3ccccc3S2(=O)=O)c1` in this work.
An IC50 [4] of 73 nM was found for `CC/C=C\C/C=C\C/C=C\C/C=C\C/C=C\C/C=C\CCC(=O)O` [DOCONEXENT] in this work.
An IC50 [4] of 5700 nM was found for `CC(C)=CCC/C(C)=C/CC/C(C)=C/Cc1c(O)cc(C)c(C(=O)O)c1O` [GRIFOLIC ACID] in this work.
A pEC50 [5] of 5.16 was found for `CCCCC/C=C\C/C=C\CCCCCCCC(=O)O` [LINOLEIC ACID] in this work.

From ChEMBL document CHEMBL5226303, “GPR120/FFAR4 Pharmacology: Focus on Agonists in Type 2 Diabetes Mellitus Drug Discovery” (J Med Chem, 2021)
